Read-outs that look alike come from different tables or passages of the source.
Legend:
[1] = both, Sprague-Dawley, rat, in vivo, po
in vivo = conditions: both, Sprague-Dawley, rat, po
[2] = dog, in vivo, po

Work on CC(C)CN(C[C@@H](O)[C@H](Cc1ccccc1)NC(=O)O[C@H]1CCOC1)S(=O)(=O)c1ccc(N)cc1 [VX-478] yielded an AUC [1] of 16200 ± 1800 ng·h/mL, an AUC (in vivo) of 29600 ± 5800 ng·h/mL and an AUC [2] of 23500 ± 7400 ng·h/mL. For the same compound, the Cmax [2] was 6800 ± 1100 ng/mL and the Tmax [2] was 1.0 ± 0.8 h.
